Laboratory results: PMC8839375, “Alpha-Glucosidase Inhibition and Molecular Docking of Isolated Compounds from Traditional Thai Medicinal Plant, Neuropeltis racemosa Wall” (Molecules, 2022)
Like-named read-outs stand apart in the source and are kept apart here. Marks after values point to notes of the source that are not given here.

Experiments:
alpha-glucosidase [1] = molecular target: T1, alpha-glucosidase (Saccharomyces cerevisiae, UniProt P53341); assay: enzyme kinetic study (Lineweaver-Burk and secondary plots); format: biochemical; settings: for inhibition type: Lineweaver-Burk plot; for Ki′: inhibition constant when inhibitor bound with enzyme-substrate complex, secondary plot
Experimental: The double reciprocal Lineweaver–Burk plot was used to determine the mode of inhibition, while the secondary plots conducted the inhibition constants. […] Briefly, the enzyme inhibition procedure was performed as mention above. The 6 concentrations of pNPG (5–0.1 mM), the fixed enzyme concentration (1 unit/mL), and the 3 concentrations of each effective sample were evaluated for the manner of inhibition.

alpha-glucosidase [2] = molecular target: T1, alpha-glucosidase; settings: cited from earlier work; for IC50: ref 13
alpha-amylase = system: alpha-amylase; design: method as in PMID 31185767; settings: ref 15; cited from earlier work

T1 sequence (P53341 whole entry): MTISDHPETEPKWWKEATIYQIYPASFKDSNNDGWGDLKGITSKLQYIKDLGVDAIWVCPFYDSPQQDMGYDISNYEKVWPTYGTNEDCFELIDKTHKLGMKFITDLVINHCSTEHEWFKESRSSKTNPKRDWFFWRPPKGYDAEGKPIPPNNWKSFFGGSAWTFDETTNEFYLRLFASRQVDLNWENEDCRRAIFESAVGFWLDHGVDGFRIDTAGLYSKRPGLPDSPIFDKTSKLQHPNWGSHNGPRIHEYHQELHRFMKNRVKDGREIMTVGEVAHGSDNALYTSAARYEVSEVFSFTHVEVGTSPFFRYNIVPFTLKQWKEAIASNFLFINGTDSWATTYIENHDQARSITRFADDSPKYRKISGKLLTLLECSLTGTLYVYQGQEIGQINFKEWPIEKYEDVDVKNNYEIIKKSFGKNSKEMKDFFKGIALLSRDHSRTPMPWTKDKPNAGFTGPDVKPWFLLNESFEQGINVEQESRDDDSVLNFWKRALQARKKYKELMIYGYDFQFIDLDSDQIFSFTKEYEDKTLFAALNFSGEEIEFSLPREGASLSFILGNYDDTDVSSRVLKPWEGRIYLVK

SMILES | inhibition type (alpha-glucosidase [1]) | inhibition type (alpha-glucosidase [2]; ref 11, 13) | inhibition type (alpha-glucosidase [2]; ref 12) | IC50 (alpha-glucosidase [2]) [µM] | Ki′ (alpha-glucosidase [1]) [µM] | further results
C[C@H]1O[C@H](O[C@H]2[C@H](O)[C@@H](O)[C@@H](O[C@H]3[C@H](O)[C@@H](O)C(O)O[C@@H]3CO)O[C@@H]2CO)[C@H](O)[C@@H](O)[C@@H]1N[C@H]1C=C(CO)[C@@H](O)[C@H](O)[C@H]1O (stereo partly drawn) [Acarbose, acarbose, reference compound] | Competitive | – | – | – | – | –
COc1cc2ccc(=O)oc2cc1O [Compound 1, scopoletin] | mixed-type | – | – | – | – | inhibition type (alpha-glucosidase [2]; ref 20): competitive; alpha-amylase inhibitory activity (alpha-amylase): potent inhibitory activity; inhibition type (alpha-glucosidase [1]; listed as Scopoletin (1)): Mixed
COc1cc(C(=O)O)cc(OC)c1O [Compound 2, syringic acid] | – | – | – | – | – | inhibition type (alpha-glucosidase [2]; ref 9): either in a competitive or an uncompetitive manner
COc1cc(/C=C/C(=O)NCCc2ccc(O)cc2)ccc1O [Compound 4, N-trans-feruloyltyramine] | Uncompetitive | uncompetitive | non-competitive | 3.58 | 51.81 | Ki′ (alpha-glucosidase [1]; listed as N-trans-feruloyltyramine (4)): 51.81 ^c µM
O=C(/C=C/c1ccc(O)cc1)NCCc1ccc(O)cc1 [Compound 5, N-trans-coumaroyltyramine] | Uncompetitive | uncompetitive | non-competitive | 0.58 | 1.99 | Ki′ (alpha-glucosidase [1]; listed as N-trans-coumaroyltyramine (5)): 1.99 ^c µM
